Laboratory results from ChEMBL document CHEMBL5360544, “Design, synthesis, and biological evaluation of diaryl heterocyclic derivatives targeting tubulin polymerization with potent anticancer activities” (Eur J Med Chem, 2023).
Blank lines part the entries; values can stand above or below the compound they belong to. Calls of active or inactive are those of the source. No cut-off for these calls is given here.

What was measured:
[1] = Toxicity in mouse xenografted with human HCT-116 cells assessed as reduction in body weight at 50 mg/kg, po administered for 20 days and measured every 2 days; type: organism-based; settings: in vivo, 480 h, time 20 day
[2] = Toxicity in mouse xenografted with human HCT-116 cells assessed as reduction in liver damage at 50 mg/kg, po administered for 20 days and measured every 2 days by H and E staining based method; type: organism-based; settings: in vivo, 480 h, time 20 day
[3] = system: HeLa; assay: Antiproliferative activity against human HeLa cells incubated for 48 hrs by CCK-8 assay; type: functional, cell-based
[4] = system: HCT-116; assay: Antitumor activity against human HCT-116 cells xenografted in nude mouse assessed as reduction in tumor volume at 50 mg/kg, po administered for 20 days and measured every 2 days; type: functional; design: scale not given: the % may be the effect or the level left; settings: time 20 day
[5] = system: SW480; assay: Antiproliferative activity against human SW480 cells incubated for 48 hrs by CCK-8 assay; type: functional, cell-based; settings: SW480, 48 h
[6] = system: HCT-116; assay: Antitumor activity against human HCT-116 cells xenografted in nude mouse assessed as reduction in tumor weight at 50 mg/kg, po administered for 20 days and measured every 2 days; type: functional; design: scale not given: the % may be the effect or the level left; settings: time 20 day
[7] = system: MDA-MB-231; assay: Antiproliferative activity against human MDA-MB-231 cells incubated for 48 hrs by CCK-8 assay; type: functional, cell-based; settings: MDA-MB-231, 48 h
[8] = system: HepG2; assay: Antiproliferative activity against human HepG2 cells incubated for 48 hrs by CCK-8 assay; type: functional, cell-based; settings: HepG2, 48 h
[9] = Antiproliferative activity against human HEK293T cells incubated for 48 hrs by CCK-8 assay; type: toxicity, cell-based, HEK-293T
[10] = Metabolic stability in human liver microsomes assessed as half life preincubated for 2 hrs followed by NADPH regenerating system addition and measured upto 4 hrs by LC-MS method; type: ADME, Microsome; settings: time < 6 hrs
[11] = Metabolic stability in rat liver microsomes assessed as half life preincubated for 2 hrs followed by NADPH regenerating system addition and measured upto 4 hrs by LC-MS method; type: ADME, Microsome; settings: time < 6 hrs
[12] = system: HCT-116; assay: Antiproliferative activity against human HCT-116 cells incubated for 48 hrs by CCK-8 assay; type: functional, cell-based; settings: HCT-116, 48 h
[13] = Toxicity in mouse xenografted with human HCT-116 cells assessed as reduction in kidney damage at 50 mg/kg, po administered for 20 days and measured every 2 days by H and E staining based method; type: organism-based; settings: in vivo, 480 h, time 20 day
[14] = system: HCT-116; assay: Induction of apoptosis in human HCT-116 cells assessed as viable cells at 2 uM incubated for 24 hrs by Annexin V and PI staining based flow cytometry analysis (reference value: 99.63%); type: functional; settings: read-out: Activity
[15] = Toxicity in mouse xenografted with human HCT-116 cells assessed as reduction in kidney damage at 50 to 100 mg/kg, po administered for 20 days and measured every 2 days by H and E staining based method; type: organism-based; settings: in vivo, 480 h, dose 50-100 mg/kg, time 20 day
[16] = target: Tubulin (Sus scrofa, UniProt P02554+P02550); assay: Inhibition of pig brain tubulin polymerization incubated for […] by spectrophotometric method; type: tissue-based
[17] = system: HCT-116; assay: Induction of apoptosis in human HCT-116 cells assessed as late apoptotic cells at 2 uM incubated for 24 hrs by Annexin V and PI staining based flow cytometry analysis (reference value: 0.07%); type: functional
[18] = target: T1, Tubulin (Homo sapiens) (UniProt P68371+Q9H4B7+P0DPH7+P68366+Q13509+Q71U36+P04350+Q3ZCM7+P07437+P68363+Q9BQE3+Q6PEY2+Q13885+Q9BVA1+Q9BUF5); assay: Induction of microtubule depolymerization in human HCT-116 cells assessed as appearance of microtubules wrapped around nucleus at 40 nM by immunofluorescent assay; type: cell-based
[19] = system: HCT-116; assay: Inhibition of colony formation in human HCT-116 cells incubated with compound for 24 hrs followed by media replacement and measured after 10 days by crystal violet staining based assay; type: functional, cell-based; settings: dose 0.5-2 µM
[20] = target: T1, Tubulin (Homo sapiens); assay: Induction of microtubule depolymerization in human HCT-116 cells assessed as appearance of microtubules wrapped around nucleus at 160 nM by immunofluorescent assay; type: cell-based
[21] = system: HCT-116; assay: Induction of apoptosis in human HCT-116 cells assessed as necrotic cells at 2 uM incubated for 24 hrs by Annexin V and PI staining based flow cytometry analysis (reference value: 0.04%); type: functional
[22] = system: HCT-116; assay: Induction of apoptosis in human HCT-116 cells assessed as necrotic cells at 0.125 uM incubated for 24 hrs by Annexin V and PI staining based flow cytometry analysis (reference value: 0.04%); type: functional
[23] = system: HCT-116; assay: Induction of apoptosis in human HCT-116 cells assessed as late apoptotic cells at 0.125 uM incubated for 24 hrs by Annexin V and PI staining based flow cytometry analysis (reference value: 0.07%); type: functional
[24] = system: HCT-116; assay: Induction of apoptosis in human HCT-116 cells assessed as early apoptotic cells at 0.5 uM incubated for 24 hrs by Annexin V and PI staining based flow cytometry analysis (reference value: 0.26%); type: functional
[25] = system: HCT-116; assay: Antitumor activity against human HCT-116 cells xenografted in nude mouse assessed as reduction in tumor volume at 100 mg/kg, po administered for 20 days and measured every 2 days; type: functional, organism-based; settings: time 20.0 day
[26] = Toxicity in mouse xenografted with human HCT-116 cells assessed as reduction in body weight at 50 to 100 mg/kg, po administered for 20 days and measured every 2 days; type: organism-based; settings: in vivo, 480 h, dose 50-100 mg/kg, time 20 day
[27] = system: HCT-116; assay: Induction of apoptosis in human HCT-116 cells assessed as early apoptotic cells at 2 uM incubated for 24 hrs by Annexin V and PI staining based flow cytometry analysis (reference value: 0.26%); type: functional
[28] = system: HCT-116; assay: Induction of apoptosis in human HCT-116 cells assessed as viable cells at 0.125 uM incubated for 24 hrs by Annexin V and PI staining based flow cytometry analysis (reference value: 99.63%); type: functional; settings: read-out: Activity
[29] = system: HCT-116; assay: Induction of apoptosis in human HCT-116 cells assessed as necrotic cells at 0.5 uM incubated for 24 hrs by Annexin V and PI staining based flow cytometry analysis (reference value: 0.04%); type: functional
[30] = system: HCT-116; assay: Induction of cell cycle arrest in human HCT-116 cells assessed as increase in G2/M phase cells incubated for 48 hrs by PI staining based flow cytometry analysis; type: functional; settings: dose 0.5-2 µM
[31] = target: T1, Tubulin (Homo sapiens); assay: Induction of microtubule depolymerization in human HCT-116 cells assessed as appearance of short microtubules at 40 nM by immunofluorescent assay; type: cell-based
[32] = system: HCT-116; assay: Antitumor activity against human HCT-116 cells xenografted in nude mouse assessed as reduction in tumor weight at 100 mg/kg, po administered for 20 days and measured every 2 days; type: functional, organism-based; settings: time 20.0 day
[33] = system: HCT-116; assay: Inhibition of colony formation in human HCT-116 cells at 2 uM incubated with compound for 24 hrs followed by media replacement and measured after 10 days by crystal violet staining based assay; type: functional
[34] = system: HCT-116; assay: Induction of apoptosis in human HCT-116 cells assessed as viable cells at 0.5 uM incubated for 24 hrs by Annexin V and PI staining based flow cytometry analysis (reference value: 99.63%); type: functional; settings: read-out: Activity
[35] = Toxicity in mouse xenografted with human HCT-116 cells assessed as reduction in liver damage at 50 to 100 mg/kg, po administered for 20 days and measured every 2 days by H and E staining based method; type: organism-based; settings: in vivo, 480 h, dose 50-100 mg/kg, time 20 day
[36] = system: HCT-116; assay: Induction of apoptosis in human HCT-116 cells assessed as early apoptotic cells at 0.125 uM incubated for 24 hrs by Annexin V and PI staining based flow cytometry analysis (reference value: 0.26%); type: functional
[37] = target: T1, Tubulin (Homo sapiens); assay: Induction of microtubule depolymerization in human HCT-116 cells assessed as appearance of short microtubules at 160 nM by immunofluorescent assay; type: cell-based
[38] = system: HCT-116; assay: Induction of apoptosis in human HCT-116 cells assessed as late apoptotic cells at 0.5 uM incubated for 24 hrs by Annexin V and PI staining based flow cytometry analysis (reference value: 0.07%); type: functional

Structure (SMILES): COc1ccc(/C=C\c2cc(OC)c(OC)c(OC)c2)cc1O [COMBRETASTATIN A4]
Activity [1]: Non-Toxic | Activity [2]: Non-Toxic | IC50 [3]: 630 nM | Activity [4]: 31.4% | IC50 [5]: 40000 nM | Activity [6]: 28.8% | IC50 [7]: 2130 nM | IC50 [8]: 1360 nM | IC50 at 48 h [9]: > 80000 nM | half-life [10]: 9.5 min | half-life [11]: 2.3 min | IC50 [12]: 2320 nM | Activity [13]: Non-Toxic

IC50 [16]: 8400 nM | IC50 [3]: 24600 nM | Activity [18]: Active | Activity [20]: Active | IC50 [5]: 37500 nM | IC50 [7]: 11400 nM | IC50 [8]: 1540 nM | Activity [31]: Active | half-life [10]: 106 min | Activity [37]: Active | half-life [11]: 6.9 min | IC50 [12]: 2650 nM
Structure (SMILES): COc1cc(-c2ccnn2-c2ccc(N)cc2)cc(OC)c1OC
viability at 2 µM [14]: 3.22% | Activity [15]: Non-Toxic | Activity [17]: 19.38% | inhibition [19]: Dose-Dependent Effect | Activity [21]: 1.72% | Activity [4]: 44.1% | Activity [22]: 2.17% | Activity [23]: 49.45% | Activity [24]: 61.42% | Activity [25]: inactive | Activity [26]: Non-Toxic | Activity [6]: 27% | Activity [27]: 75.68% | viability at 0.125 µM [28]: 2.2% | Activity [29]: 4.87% | Activity [30]: Dose-Dependent Effect | IC50 at 48 h [9]: > 80000 nM | Activity [32]: inactive | inhibition at 2 µM [33]: 100% | viability at 0.5 µM [34]: 4.92% | Activity [35]: Non-Toxic | Activity [36]: 46.19% | Activity [38]: 28.79%
